Data: ChEMBL document CHEMBL3885881, “DrugMatrix”

Organism: Rattus norvegicus
Test: DrugMatrix - Regimen: Daily Repeat
Format: toxicity, organism-based, Sprague-Dawley
Design: regimen Daily Repeat, gender Male, age 6-8 weeks
Details: in vivo, po, route oral GAVAGE, vehicle .5 % CMC; for URIC ACID / ALANINE AMINOTRANSFERASE / ALBUMIN / ALKALINE PHOSPHATASE / ASPARTATE AMINOTRANSFERASE / BLOOD UREA NITROGEN / CARBON DIOXIDE / CHLORIDE / CHOLESTEROL / CREATINE PHOSPHOKINASE / CREATININE / GLUCOSE / LACTATE DEHYDROGENASE / LIPASE / PHOSPHORUS / POTASSIUM / SODIUM / TOTAL BILIRUBIN / TOTAL PROTEIN: tissue Plasma; for ABSOLUTE BASOPHIL / ABSOLUTE EOSINOPHIL / ABSOLUTE LYMPHOCYTE / ABSOLUTE MONOCYTE / ABSOLUTE SEGMENTED NEUTROPHIL / BASOPHIL / EOSINOPHIL / ERYTHROCYTE COUNT / HEMATOCRIT / HEMOGLOBIN / LEUKOCYTE COUNT / LYMPHOCYTE / MEAN CORPUSCULAR HEMOGLOBIN / MEAN CORPUSCULAR HEMOGLOBIN CONCENTRATION / MEAN CORPUSCULAR VOLUME / MONOCYTE / NEUTROPHIL / NUCLEATED RED BLOOD CELLS / PLATELET COUNT: tissue Blood
[1] = 3 mg/kg, 120 h, dose level Low, time 5 day
[2] = 29 mg/kg, 72 h, dose level High, time 3 day
[3] = 29 mg/kg, 120 h, dose level High, time 5 day

O=c1[nH]cc(F)c(=O)[nH]1 [FLUOROURACIL] was tested, and the “URIC ACID” value (3 mg/kg, 72 h, dose level Low, time 3 day) was 2.6 mg/dL, the “ABSOLUTE BASOPHIL” value [1] was 0 CELLS/uL and the “ABSOLUTE EOSINOPHIL” value [1] was 0 CELLS/uL. The “ABSOLUTE LYMPHOCYTE” value [1] was 14436 CELLS/uL, the “ABSOLUTE MONOCYTE” value [1] was 30.67 CELLS/uL and the “ABSOLUTE SEGMENTED NEUTROPHIL” value [1] was 1566.67 CELLS/uL. For the same molecule, the BASOPHIL [1] was 0%, the EOSINOPHIL [1] was 0% and the “ERYTHROCYTE COUNT” value [1] was 6.23 x10E6/uL. The HEMATOCRIT [1] was 38.2%, the HEMOGLOBIN [1] was 14.4 G/DL and the “LEUKOCYTE COUNT” value [1] was 16.03 x10E3/uL. For the same molecule, the LYMPHOCYTE [1] was 88.67%, the “MEAN CORPUSCULAR HEMOGLOBIN” value [1] was 23.13 pg and the “MEAN CORPUSCULAR HEMOGLOBIN CONCENTRATION” value [1] was 37.73 G/DL. For the same molecule, the “MEAN CORPUSCULAR VOLUME” value [1] was 61.3 fL, the MONOCYTE [1] was 0.33% and the NEUTROPHIL [1] was 11%. For the same molecule, the “NUCLEATED RED BLOOD CELLS” value [1] was 0 /100WBC, the “PLATELET COUNT” value [1] was 1198.67 x10E3/uL and the “ALANINE AMINOTRANSFERASE” value [1] was 42.67 u/L. For the same molecule, the ALBUMIN [1] was 4.47 G/DL, the “ALKALINE PHOSPHATASE” value [1] was 303.33 u/L and the “ASPARTATE AMINOTRANSFERASE” value [1] was 79 u/L. The “BLOOD UREA NITROGEN” value [1] was 16 mg/dL, the “CARBON DIOXIDE” value [1] was 27.67 mmol/L and the CHLORIDE [1] was 99.67 MEQ/L. For the same molecule, the CHOLESTEROL [1] was 71 mg/dL, the “CREATINE PHOSPHOKINASE” value [1] was 253.67 u/L and the CREATININE [1] was 0.22 mg/dL. The GLUCOSE [1] was 146 mg/dL, the “LACTATE DEHYDROGENASE” value [1] was 229 u/L and the LIPASE [1] was 8.33 u/L. The PHOSPHORUS [1] was 11.5 mg/dL, the POTASSIUM [1] was 6.67 MEQ/L and the SODIUM [1] was 144.17 MEQ/L. The “TOTAL BILIRUBIN” value [1] was 0.2 mg/dL, the “URIC ACID” value [1] was 1.6 mg/dL and the “ABSOLUTE BASOPHIL” value [2] was 0 CELLS/uL. For the same molecule, the “ABSOLUTE EOSINOPHIL” value [2] was 63.33 CELLS/uL, the “ABSOLUTE LYMPHOCYTE” value [2] was 11413 CELLS/uL and the “ABSOLUTE MONOCYTE” value [2] was 90.33 CELLS/uL. The “ABSOLUTE SEGMENTED NEUTROPHIL” value [2] was 633.33 CELLS/uL, the BASOPHIL [2] was 0% and the EOSINOPHIL [2] was 0.67%. For the same molecule, the “ERYTHROCYTE COUNT” value [2] was 5.41 x10E6/uL, the HEMATOCRIT [2] was 34.9% and the HEMOGLOBIN [2] was 13.17 G/DL. The “LEUKOCYTE COUNT” value [2] was 12.2 x10E3/uL, the LYMPHOCYTE [2] was 93.67% and the “MEAN CORPUSCULAR HEMOGLOBIN” value [2] was 24.33 pg. For the same molecule, the “MEAN CORPUSCULAR HEMOGLOBIN CONCENTRATION” value [2] was 37.73 G/DL, the “MEAN CORPUSCULAR VOLUME” value [2] was 64.5 fL and the MONOCYTE [2] was 0.67%. For the same molecule, the NEUTROPHIL [2] was 5%, the “NUCLEATED RED BLOOD CELLS” value [2] was 0.33 /100WBC and the “PLATELET COUNT” value [2] was 1461.33 x10E3/uL. For the same molecule, the “ALANINE AMINOTRANSFERASE” value [2] was 43.33 u/L, the ALBUMIN [2] was 4.47 G/DL and the “ALKALINE PHOSPHATASE” value [2] was 451.67 u/L. The “ASPARTATE AMINOTRANSFERASE” value [2] was 81.67 u/L, the “BLOOD UREA NITROGEN” value [2] was 15.67 mg/dL and the “CARBON DIOXIDE” value [2] was 26.33 mmol/L. For the same molecule, the CHLORIDE [2] was 101.67 MEQ/L, the CHOLESTEROL [2] was 58.67 mg/dL and the “CREATINE PHOSPHOKINASE” value [2] was 429.33 u/L. For the same molecule, the CREATININE [2] was 0.19 mg/dL, the GLUCOSE [2] was 206.33 mg/dL and the “LACTATE DEHYDROGENASE” value [2] was 150.67 u/L. The LIPASE [2] was 8 u/L, the PHOSPHORUS [2] was 12.07 mg/dL and the POTASSIUM [2] was 6.46 MEQ/L. For the same molecule, the SODIUM [2] was 143.2 MEQ/L, the “TOTAL BILIRUBIN” value [2] was 0.17 mg/dL and the “TOTAL PROTEIN” value [2] was 6.07 G/DL. For the same molecule, the “URIC ACID” value [2] was 2.17 mg/dL, the “ABSOLUTE BASOPHIL” value [3] was 0 CELLS/uL and the “ABSOLUTE EOSINOPHIL” value [3] was 58 CELLS/uL. The “ABSOLUTE LYMPHOCYTE” value [3] was 4679.33 CELLS/uL, the “ABSOLUTE MONOCYTE” value [3] was 33 CELLS/uL and the “ABSOLUTE SEGMENTED NEUTROPHIL” value [3] was 263 CELLS/uL. The BASOPHIL [3] was 0%, the EOSINOPHIL [3] was 1% and the “ERYTHROCYTE COUNT” value [3] was 6.26 x10E6/uL. For the same molecule, the HEMATOCRIT [3] was 39%, the HEMOGLOBIN [3] was 15.3 G/DL and the “LEUKOCYTE COUNT” value [3] was 5.03 x10E3/uL. For the same molecule, the LYMPHOCYTE [3] was 93%, the “MEAN CORPUSCULAR HEMOGLOBIN” value [3] was 24.43 pg and the “MEAN CORPUSCULAR HEMOGLOBIN CONCENTRATION” value [3] was 39.23 G/DL. The “MEAN CORPUSCULAR VOLUME” value [3] was 62.37 fL, the MONOCYTE [3] was 0.67% and the NEUTROPHIL [3] was 5.33%. For the same molecule, the “NUCLEATED RED BLOOD CELLS” value [3] was 0 /100WBC, the “PLATELET COUNT” value [3] was 964.67 x10E3/uL and the “ALANINE AMINOTRANSFERASE” value [3] was 23.67 u/L. For the same molecule, the ALBUMIN [3] was 4.03 G/DL, the “ALKALINE PHOSPHATASE” value [3] was 148.33 u/L and the “ASPARTATE AMINOTRANSFERASE” value [3] was 75.67 u/L. The “BLOOD UREA NITROGEN” value [3] was 18.67 mg/dL, the “CARBON DIOXIDE” value [3] was 25 mmol/L and the CHLORIDE [3] was 102.67 MEQ/L. The CHOLESTEROL [3] was 89.67 mg/dL, the “CREATINE PHOSPHOKINASE” value [3] was 751.33 u/L and the CREATININE [3] was 0.12 mg/dL. The GLUCOSE [3] was 106.67 mg/dL, the “LACTATE DEHYDROGENASE” value [3] was 166.33 u/L and the LIPASE [3] was 7.33 u/L. For the same molecule, the PHOSPHORUS [3] was 7.93 mg/dL, the POTASSIUM [3] was 5.82 MEQ/L and the SODIUM [3] was 150.33 MEQ/L. For the same molecule, the “TOTAL BILIRUBIN” value [3] was 0.17 mg/dL, the “TOTAL PROTEIN” value [3] was 5.57 G/DL and the “URIC ACID” value [3] was 0.93 mg/dL.
